Toxic doses and inconclusive results are not listed. No stated cut-off is given here; in the data, active means T/C of 150% or more; inactive means T/C below 125%.
Test system: L1210 leukemia ip in BDF1 mice, survival T/C
Experiment: NCI In Vivo Anticancer Drug Screen. Data for tumor model L1210 Leukemia (intraperitoneal) in B6D2F1 (BDF1) mice
Conditions: endpoint: mean survival time, higher = longer survival
Method in brief: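 Each compound was tested against a transplantable tumor grown in mice. The endpoint was survival, with treated animals benchmarked against vehicle controls as a simple ratio.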

[1] = dose: 100.0 mg/kg/injection, schedule: Q01DX009 (ip), vehicle: Klucel (hydroxypropylcellulose) (HPC)

Measured: T/C

Cc1ccccc1-n1c(C)nc2ccccc2c1=O
inactive: dose: 75.0 mg/kg/injection, schedule: Q01DX001 (ip), vehicle: saline 102 % of control | dose: 100.0 mg/kg/injection, schedule: Q01DX001 (ip), vehicle: other 94 % of control | [1] 97 % of control | dose: 100.0 mg/kg/injection, schedule: Q04DX003 (ip), vehicle: Klucel (hydroxypropylcellulose) (HPC) 101 % of control | dose: 150.0 mg/kg/injection, schedule: Q01DX001 (ip), vehicle: saline 106 % of control | dose: 200.0 mg/kg/injection, schedule: Q01DX001 (ip), vehicle: other 100 % of control | dose: 200.0 mg/kg/injection, schedule: Q01DX009 (ip), vehicle: Klucel (hydroxypropylcellulose) (HPC) 105 % of control | dose: 200.0 mg/kg/injection, schedule: Q04DX003 (ip), vehicle: Klucel (hydroxypropylcellulose) (HPC) 105 % of control | dose: 300.0 mg/kg/injection, schedule: Q01DX001 (ip), vehicle: saline 107 % of control | dose: 400.0 mg/kg/injection, schedule: Q01DX001 (ip), vehicle: other 96 % of control | dose: 400.0 mg/kg/injection, schedule: Q04DX003 (ip), vehicle: Klucel (hydroxypropylcellulose) (HPC) 111 % of control

NC(=O)OCC1OC(n2ccc(=O)[nH]c2=O)C(O)C1O (centres undefined)
inactive: dose: 100.0 mg/kg/injection, schedule: Q01DX005 (ip), vehicle: saline 105 % of control

CCCCN(CCCC)CCNc1ccc(Cl)c2oc3cc(C)ccc3c(=O)c12
inactive: dose: 12.5 mg/kg/injection, schedule: Q01DX009 (ip), vehicle: Klucel (hydroxypropylcellulose) (HPC) 95 % of control | dose: 12.5 mg/kg/injection, schedule: Q04DX003 (ip), vehicle: saline with Tween-80 94 % of control | dose: 25.0 mg/kg/injection, schedule: Q01DX009 (ip), vehicle: Klucel (hydroxypropylcellulose) (HPC) 92 % of control | dose: 25.0 mg/kg/injection, schedule: Q04DX003 (ip), vehicle: saline with Tween-80 95 % of control | dose: 50.0 mg/kg/injection, schedule: Q01DX001 (ip), vehicle: saline 93 % of control | dose: 50.0 mg/kg/injection, schedule: Q01DX009 (ip), vehicle: Klucel (hydroxypropylcellulose) (HPC) 93 % of control | dose: 50.0 mg/kg/injection, schedule: Q04DX003 (ip), vehicle: saline with Tween-80 87 % of control | dose: 100.0 mg/kg/injection, schedule: Q01DX001 (ip), vehicle: saline 98 % of control | [1] 95 % of control | dose: 200.0 mg/kg/injection, schedule: Q01DX001 (ip), vehicle: saline 93 % of control | dose: 400.0 mg/kg/injection, schedule: Q01DX001 (ip), vehicle: saline 98 % of control

CCOc1nc(=O)n(C2CCOC2=O)cc1F (centres undefined)
inactive: dose: 75.0 mg/kg/injection, schedule: Q01DX009 (ip), vehicle: other 103 % of control | dose: 100.0 mg/kg/injection, schedule: Q04DX003 (ip), vehicle: saline 92 % of control | dose: 150.0 mg/kg/injection, schedule: Q01DX009 (ip), vehicle: other 103 % of control | dose: 200.0 mg/kg/injection, schedule: Q04DX003 (ip), vehicle: saline 106 % of control | dose: 300.0 mg/kg/injection, schedule: Q01DX009 (ip), vehicle: other 100 % of control | dose: 400.0 mg/kg/injection, schedule: Q04DX003 (ip), vehicle: saline 95 % of control

— PubChem BioAssay AID248 (DTP/NCI, 2004)
